Consider one compound from publication PMC11550998, “Novel 5-HT7 receptor antagonists modulate intestinal immune responses and reduce severity of colitis” (American Journal of Physiology - Gastrointestinal and Liver …, 2024).

Broadly, the Ki is the equilibrium dissociation constant of an inhibitor or competing ligand from its target.

For one data set, the target named is T1, α2A (Homo sapiens, UniProt P08913).
T1 construct: NIMH Psychoactive Drug Screening Program (PDSP), assay service
As to the kind of experiment: PDSP selectivity profiling, α2A. The class given is binding. The procedure: (§1) In vitro assessments of MC-170073, MC-20078, and MC-230079 activity at the following targets were determined using the assay systems available through the Psychoactive Drug Screening Program (PDSP). Detailed protocols for each assay are available at https://pdsp.unc.edu/pdspweb/?site=assays. Receptors 5-HT1A, 5-HT1B, 5-HT1D, 5-HT1E, 5-HT2A, 5-HT2B, 5-HT2C, 5-HT3, 5-HT5A, 5-HT6, 5-HT7, α1A, α1B, α1D, α2A, α2B, α2C, benzodiazepine, β1, β2, β3, GABA-A, H1, H2, H3, H4, M1, M2, M3, M4, M5, δ-opioid, κ-opioid, and µ-opioid and transporters dopamine, norepinephrine, and serotonin were evaluated.

A further data set addresses T2, D3 (Homo sapiens, UniProt P35462).
T2 construct: NIMH Psychoactive Drug Screening Program (PDSP), assay service
As to the kind of experiment: PDSP selectivity profiling, D3. The class given is binding.

A further data set addresses T3, D4 (Homo sapiens, UniProt P21917).
T3 construct: NIMH Psychoactive Drug Screening Program (PDSP), assay service
Put plainly: PDSP selectivity profiling, D4. The class given is binding.

A further data set has as its target T4, H1 (Homo sapiens, UniProt P35367).
T4 construct: NIMH Psychoactive Drug Screening Program (PDSP), assay service
Put plainly: PDSP selectivity profiling, H1. The class given is binding. As for the experimental part:
as §1

Data set [1] is described as follows: Microsomal stability assay, mouse liver microsomes. Format: in vitro ADME. The note with it: 37°C, NADPH regenerating system, read-out: T1/2 MLM. As for the experimental part:
Test compounds were assessed for microsomal stability by incubating at 37°C in the presence of mouse or human liver microsomes and an NADPH regenerating system as described by Yang et al. ([16]). Microsomal protein content was adjusted to ensure accurate rates of substrate consumption. Analysis was performed by LC-MS/MS analysis.
(In general: Liver microsomes are vesicles of endoplasmic reticulum, rich in cytochrome P450 enzymes.)

In data set [2] the test system is chronic DSS-induced colitis. Put plainly: Chronic DSS-induced colitis model (three cycles of DSS). Format: in vivo, C57BL/6 mice. Conditions: 10 mg/kg ip during last cycle. The source says: C57BL/6 (Taconic, Cambridge City, IN) for the DSS model of colitis, as well as C57BL/6 and Rag1^−/− mice (Jackson Laboratory, Bar Harbor, ME) for the T-cell transfer model, were kept in sterilized, filter-topped cages under specific pathogen-free conditions upon arrival and fed autoclaved food. Male mice aged 8–10 wk were used for all experiments. Mice were acclimatized for 7 days before the start of any experiments. All experiments were approved by the animal ethics committee of McMaster University and conducted under Canadian guidelines for animal research.
For induction of acute colitis, DSS (molecular mass 40 kDa; ICN; Biomedicals Incorporate, Solon, OH) was added to autoclaved drinking water at a final concentration of 4 or 5% wt/vol for 5 days. For the induction of chronic colitis, DSS was added to normal drinking water at a final concentration of 4% for 5 days, followed by 7 days of water. This cycle was repeated twice thereafter, with 2% DSS. Control mice received vehicle or normal drinking water.
For acute DSS-induced colitis, C576BL/6 mice were treated with MC-170073 (10 mg/kg of body wt) or vehicle (10% DMSO in normal saline) via intraperitoneal injection once daily for 6 days, starting 1 day before the beginning of DSS. In a separate experiment, C57BL/6 mice were orally administered with MC-230078 (10 mg/kg) or vehicle twice daily for 5 days, starting from the beginning of DSS. […]
Disease activity index (DAI) is a combined score of weight loss, stool consistency, and fecal bleeding and was blindly assessed using a previously published scoring system ([19]). […] DAI was measured across all days of DSS treatment. Macroscopic damage scores were blindly scored using a previously published scoring system for DSS-induced colitis ([19]).
Colonic myeloperoxidase (MPO) levels were measured following a published protocol ([19]). […] The absorbance was measured at 450 nm by a spectrophotometer (model EL808, BioTek). MPO level was expressed in units per milligram of tissue, where 1 U is defined as the quantity of enzyme able to convert 1 μmol hydrogen peroxide to water per minute at room temperature.
Segments of the proximal colon were washed with PBS, fixed in 10% neutral-buffered formalin, washed with ethanol, and embedded in paraffin. Hematoxylin-eosin (H&E)-stained colonic tissue sections were scored using a previously published system ([19]): crypt architecture (normal = 0; severe crypt distortion with loss of entire crypts = 3), degree of inflammatory cell infiltration (normal = 0; dense inflammatory infiltrate = 3), muscle thickening (base of crypt sits on the muscularis mucosae = 0; marked muscle thickening present = 3), goblet cell depletion (absent = 0; present = 1), and crypt abscess (absent = 0; present = 1). […]

T4 sequence (P35367 whole entry): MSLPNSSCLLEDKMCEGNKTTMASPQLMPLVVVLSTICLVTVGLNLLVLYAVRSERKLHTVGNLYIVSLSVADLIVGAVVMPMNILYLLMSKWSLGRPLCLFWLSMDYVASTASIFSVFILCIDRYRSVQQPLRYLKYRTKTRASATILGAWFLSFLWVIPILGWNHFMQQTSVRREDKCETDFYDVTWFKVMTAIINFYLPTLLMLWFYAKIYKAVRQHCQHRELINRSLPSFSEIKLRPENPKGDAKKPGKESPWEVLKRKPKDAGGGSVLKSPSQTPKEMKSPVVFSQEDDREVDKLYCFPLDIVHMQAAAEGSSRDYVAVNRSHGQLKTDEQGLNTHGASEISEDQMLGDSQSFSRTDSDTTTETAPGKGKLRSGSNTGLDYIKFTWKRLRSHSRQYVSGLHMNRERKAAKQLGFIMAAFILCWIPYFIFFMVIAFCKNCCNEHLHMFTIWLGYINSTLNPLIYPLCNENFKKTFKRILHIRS
T3 sequence (P21917 whole entry): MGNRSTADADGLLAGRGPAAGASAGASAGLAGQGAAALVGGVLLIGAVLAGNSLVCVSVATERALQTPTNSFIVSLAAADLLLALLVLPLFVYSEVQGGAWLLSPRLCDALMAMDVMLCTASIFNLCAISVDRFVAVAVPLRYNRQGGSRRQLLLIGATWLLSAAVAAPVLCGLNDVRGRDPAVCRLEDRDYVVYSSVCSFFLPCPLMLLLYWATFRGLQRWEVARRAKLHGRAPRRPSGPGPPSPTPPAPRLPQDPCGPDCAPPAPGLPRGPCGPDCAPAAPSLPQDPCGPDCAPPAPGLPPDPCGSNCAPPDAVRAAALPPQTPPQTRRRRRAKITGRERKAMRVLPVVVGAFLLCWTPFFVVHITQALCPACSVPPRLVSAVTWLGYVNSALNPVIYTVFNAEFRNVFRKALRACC
T2 sequence (P35462 whole entry): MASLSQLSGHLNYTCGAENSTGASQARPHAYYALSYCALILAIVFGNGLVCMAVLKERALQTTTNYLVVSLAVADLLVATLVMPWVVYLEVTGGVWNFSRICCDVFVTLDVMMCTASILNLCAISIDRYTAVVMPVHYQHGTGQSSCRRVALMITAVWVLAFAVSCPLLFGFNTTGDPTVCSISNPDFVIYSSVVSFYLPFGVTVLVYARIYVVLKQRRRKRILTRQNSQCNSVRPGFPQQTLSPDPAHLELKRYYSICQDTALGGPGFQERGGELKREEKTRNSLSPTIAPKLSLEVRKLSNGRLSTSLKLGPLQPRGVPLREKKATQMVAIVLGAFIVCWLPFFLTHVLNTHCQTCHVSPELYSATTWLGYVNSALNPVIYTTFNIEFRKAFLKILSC
T1 sequence (P08913 whole entry): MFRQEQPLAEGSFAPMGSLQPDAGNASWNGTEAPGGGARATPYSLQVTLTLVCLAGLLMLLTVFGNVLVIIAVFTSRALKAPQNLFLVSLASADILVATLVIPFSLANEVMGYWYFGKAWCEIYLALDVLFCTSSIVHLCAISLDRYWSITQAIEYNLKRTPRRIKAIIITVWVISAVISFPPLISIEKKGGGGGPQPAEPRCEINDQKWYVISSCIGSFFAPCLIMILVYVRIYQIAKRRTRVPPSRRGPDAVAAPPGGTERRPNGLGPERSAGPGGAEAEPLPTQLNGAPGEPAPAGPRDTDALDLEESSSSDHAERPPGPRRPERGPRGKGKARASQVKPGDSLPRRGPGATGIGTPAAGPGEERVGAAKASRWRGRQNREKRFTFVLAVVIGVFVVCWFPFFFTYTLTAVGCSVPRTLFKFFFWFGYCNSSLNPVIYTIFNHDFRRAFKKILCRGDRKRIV

Consider `CCC1(CC)CC(CCN2CCN(c3ccc(O)cc3)CC2)OC1=O` (stereo not drawn) [MC-170073], for which the Ki on α2A stood at 3.48 µM. The compound also displayed a Ki on D3 of 1.23 µM. Moreover, the Ki on D4 is 0.591 µM. The same compound showed a Ki on H1 of 0.915 µM. Also, the half-life in data set [1] amounted to 17 min. In data set [2], the “colonic IL-1β level” value is given as “lower levels”, the “colonic MPO level” value is “lower levels”, the histological score entry was “downregulation” and the macroscopic score result is on record as “downregulation”.
